Patent publication US7928128B2, “Use of(R)-(−) -2-[5-(4-fluorophenyl)-3-pyridylmethylaminomethyl]-chromane and its physiologically acceptable salts” (Merck Patent Gesellschaft mit beschrankter Haftung, priority 2000, dated 2011)

Columns and labels:
Parkinson patients = settings: literature reports; cited from earlier work
[1] = tested on: patients with advanced idiopathic Parkinson's disease complicated by "peak-dose" dyskinesia; assay: Double-blind cross-over study, advanced idiopathic Parkinson's disease with peak-dose dyskinesia; assay type: in vivo, human; settings: add on, 2.5 to 10 mg b.i.d., versus placebo; first hour in the on state
Source text: A typical study to investigate the efficacy of the compounds according to the invention for adverse effects in Parkinson's disease is described in the following. 40 patients of either sex with advanced idiopathic Parkinson's disease complicated by “peak-dose” dyskinesia participate in a double-blind, cross-over study. The main inclusion criteria are Hoehn & Yahr stage ≧2.5 (lit.: Hoehn H. M. et al, Neurology 1967; 17: 427-442), aged 40-75 years, symptom duration of at least 5 years, and a I-dopa treatment duration of at least 3 years. […] The dose of blinded medication is titrated over a period of 3 weeks in a range from 2.5 to 10 mg b.i.d. Then the medication is kept constant for 1 week. Before the start of titration and at the end of the treatment period a I-dopa challenge is performed according to […] et al. (Movement Disord, 1999, 14 (Suppl. 1), 54-59) using video recording. The main outcome measure of the protocol is the mean score for dyskinesia during the first hour in the “on” state after I-dopa challenge. Therefore, the investigator assesses every minute the severity of dyskinesia (0=absent, 4=severe disabling involuntary movements) from 0 to 4 in seven parts of the body (upper and lower limbs, face, trunk, neck). After a 2-week wash-out period the two study arms are crossed over and the protocol is repeated.

[2] = tested on: patients with idiopathic Parkinson's disease; assay: Double-blind study in idiopathic Parkinson's disease (UPDRS); assay type: in vivo, human; settings: add on, 2.5 to 10 mg b.i.d., versus placebo
Source text: A typical study to investigate the efficacy of the compounds according to the invention in the treatment of idiopathic Parkinson's disease is described in the following. 180 patients of either sex with idiopathic Parkinson's disease participate in a double-blind study. The main inclusion criteria are Hoehn & Yahr stage ≧2.0 (Hoehn H. M. et al, Neurology 1967; 17: 427-442), aged 50-80 years, symptom duration of at least 5 years. […] The dose of blinded medication is titrated over a period of 4 weeks in a range from 2.5 to 10 mg b.i.d. Then the medication is kept constant for 1 week. Before the start of titration, at the end of the treatment period and 2 weeks after the end of the tiration period an assessment is performed in each patients using the unified Parkinson's disease rating scale (UPDRS part I to V according to S. Fahn et al., in: Recent developments in Parkinson's disease, vol. 2, MacMillan health information 1987, 153-163). […] Furthermore, the efficacy to treat tremor is shown by the means of the UPDRS.

MSA patients = assay: Study in MSA patients (UPDRS); assay type: in vivo, human; settings: add on, 2.5 to 20 mg b.i.d., versus placebo, cross-over
Method: A typical study to investigate the efficacy of the compounds according to the invention in MSA patients encompasses 30 patients of either sex with a symptom duration of at least 5 years and a significant reduction of central dopamine receptors in positron emission tomography (PET) scan. The study design is similar to that described above for Parkinson's disease. […] Before the start of titration and at the end of the treatment period a complete UPDRS assessment is performed in each patient (primary outcome measure). After a 2-week wash-out period the two study arms are crossed over and the protocol is repeated.

[3] = tested on: patients with Huntington's disease; assay: Trial in patients with Huntington's disease; assay type: in vivo, human; settings: add on, 2.5 to 20 mg b.i.d., versus placebo
Method: A typical trial to establish the effect of the compounds according to the invention on chorea, voluntary motor performance, and functional disability in patients with Huntington's disease encompasses 32 genetically diagnosed patients. […] The dose of blinded medication is titrated over a period of 3 weeks in a range from 2.5 to 20 mg b.i.d. Then the medication is held constant for 1 week. Assessments are performed in the week before and at the last day of the trial. Chorea is scored using the abnormal involuntary movement scale (AIMS, W. Guy, in: ECDEU assessment manual. Rockville Md.: US dept. of health, education and welfare, 1976: 534-537), the unified Huntington's disease rating scale (UHDRS, Huntington study group, 1996, Movement Disord, 11: 136-42), and judgement of video recordings. Voluntary motor performance is assessed using the UHDRS motor scale. Patients and their partners complete a questionnaire regarding functional disability.

[4] = tested on: patients with cervical dystonia (spasmodic torticollis); assay: Double-blind placebo-controlled study in cervical dystonia (TWSTRS); assay type: in vivo, human; settings: 2.5 mg to 20 mg b.i.d.
[5] = tested on: schizophrenic inpatients on long-term stable antipsychotic treatment; assay: Tardive dyskinesia study in schizophrenic inpatients (AIMS); assay type: in vivo, human; settings: add on to antipsychotic treatment, 2.5 to 20 mg b.i.d., versus placebo period
Method: dyskinesia is a common adverse effect of long-term treatment with neuroleptics. A typical study to investigate the efficacy of the compounds according to the invention in tardive dyskinesia is described in the following. 32 schizophrenic (DSM-III-R) inpatients aged 25-60 years on long-term stable antipsychotic treatment (duration of at least 5 years) entered the study. […] The dose of blinded medication is titrated over a period of 3 weeks in a range from 2.5 to 20 mg b.i.d. Then the medication is maintained under double-blind conditions for 2 weeks. After a 2-week wash-out period, the test drugs are crossed over. Assessments of tardive dyskinesia by means of the Abnormal Involuntary Movement Scale (AIMS, see above) and of Parkinsonian extrapyramidal side effects (UPDRS, see above) are made pretreatment and posttreatment.

SMILES	anti-dyskinetic effect in Parkinson patients (Parkinson patients)	mean dyskinesia scores after I-dopa challenge [1]	UPDRS scores [2]	UPDRS (MSA patients)	involuntary motor performance (chorea) ([3]; AIMS, UHDRS, video recordings)	voluntary motor performance ([3]; UHDRS motor scale)	TWSTRS scores [4]	AIMS scores [5]
O=C1CC2(CCCC2)CC(=O)N1CCCCN1CCN(c2ncccn2)CC1 [buspirone]	moderate anti-dyskinetic properties	–	–	–	–	–	–	–
Cl.Fc1ccc(-c2cncc(CNC[C@H]3CCc4ccccc4O3)c2)cc1 [(R)-(−)-2-[5-(4-fluorophenyl)-3-pyridylmethylaminomethyl]-chromane hydrochloride]	–	significant clinical improvement	significant clinical improvement	significant clinical improvement	significant improvement	significant improvement	significant improvement	significantly lower than during placebo period
